Source: patent US8008291B2 (Mimetica Pty Ltd, priority 2008, dated 2011)
Read-outs that look alike come from different tables or passages of the source.

Key:
hMC1R = hMC1R (Homo sapiens, UniProt Q01726); assay: Human MC1R radioligand binding assay; details: hMCR binding selectivity, [125I] NDP-MSH, membranes
Procedure: (§1) • Na^125I (0.5 mCi, 17.4 Ci/mg) was added to 50 μL sodium phosphate (50 mM, pH7.4) in an eppendorf tube precoated with IODOGEN. After incubation for 10 mins the phosphate buffer containing the iodine was added to NDP-MSH (10 ul at 1 mg/mL) in a separate eppendorf tube. This was incubated for a further 10 mins. The iodinated NDP-MSH was purified by HPLC on a Zorbax SB 300 column using solvent A: 0.05% TFA and solvent B: 90% acetonitrile 0.045% TFA with a linear gradient, 0-67% B over 60 mins. […] Resuspended membranes were kept on ice until they were added to the wells of the plate. Binding Protocol for 400 microassays per vial: • Assays were performed in 96 well polypropylene plates. […] This was incubated for 1 hr at 37° C.
(§2) Radioligand binding assays were carried out using commercial or in-house prepared hMC1R, hMC3R and hMC4R membranes and [125I]
(§3) The homogenisation and ice incubation was repeated three times. The mixture was then centrifuged at 1260×g for 5 mins. […] This was centrifuged at 30,000×g for 90 mins at 4° C.

hMC3R = hMC3R (Homo sapiens, UniProt P41968); assay: Human MC3R radioligand binding assay; details: hMCR binding selectivity, [125I] NDP-MSH, membranes
Chain of hMC3R (P41968 whole entry): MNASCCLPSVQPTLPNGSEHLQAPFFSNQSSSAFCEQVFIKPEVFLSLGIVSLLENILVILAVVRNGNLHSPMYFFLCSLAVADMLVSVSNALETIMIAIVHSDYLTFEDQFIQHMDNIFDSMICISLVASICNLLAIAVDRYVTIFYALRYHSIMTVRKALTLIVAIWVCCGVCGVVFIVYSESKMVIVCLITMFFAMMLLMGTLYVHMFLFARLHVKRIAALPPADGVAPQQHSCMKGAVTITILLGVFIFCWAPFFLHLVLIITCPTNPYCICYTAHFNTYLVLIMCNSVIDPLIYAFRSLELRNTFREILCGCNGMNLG
Procedure: as §1, §2, §3

hMC4R = hMC4R (Homo sapiens, UniProt P32245); assay: Human MC4R radioligand binding assay; details: hMCR binding selectivity, [125I] NDP-MSH, membranes
Chain of hMC4R (P32245 whole entry): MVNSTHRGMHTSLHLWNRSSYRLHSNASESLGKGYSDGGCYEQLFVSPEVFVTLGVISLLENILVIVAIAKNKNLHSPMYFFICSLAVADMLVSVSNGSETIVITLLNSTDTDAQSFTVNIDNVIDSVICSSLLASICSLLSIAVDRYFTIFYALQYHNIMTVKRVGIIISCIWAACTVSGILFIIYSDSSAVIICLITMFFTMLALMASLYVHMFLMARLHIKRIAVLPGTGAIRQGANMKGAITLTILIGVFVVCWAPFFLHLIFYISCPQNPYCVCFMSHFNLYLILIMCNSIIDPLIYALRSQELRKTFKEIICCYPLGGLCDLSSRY
Procedure: as §1, §2, §3

[1] = target: T1, rhesus monkey MC5R (membranes) (Macaca mulatta, UniProt A0A5F8AEA9); assay: MC5R radioligand binding, rhesus monkey MC5R membranes
T1 construct: expressed in transfected cells
T1 sequence (A0A5F8AEA9 1-325): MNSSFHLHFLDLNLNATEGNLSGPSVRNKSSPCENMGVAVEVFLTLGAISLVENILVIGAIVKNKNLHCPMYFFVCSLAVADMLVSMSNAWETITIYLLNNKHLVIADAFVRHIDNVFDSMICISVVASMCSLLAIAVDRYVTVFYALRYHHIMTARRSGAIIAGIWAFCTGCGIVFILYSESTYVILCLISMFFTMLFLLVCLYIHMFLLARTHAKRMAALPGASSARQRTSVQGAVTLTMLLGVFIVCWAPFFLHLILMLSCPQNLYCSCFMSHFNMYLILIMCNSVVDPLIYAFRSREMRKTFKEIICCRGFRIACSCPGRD

[2] = target: T2, rhesus monkey MC5R (whole cells) (Macaca mulatta, UniProt A0A5F8AEA9); assay: MC5R radioligand binding, rhesus monkey MC5R whole cells
T2 construct: expressed in transfected cells
T2 sequence (A0A5F8AEA9 1-325): as above

mouse MC5R (membrane) = target: T3, mouse MC5R (membrane) (Mus musculus, UniProt P41149); assay: MC5R radioligand binding, mouse MC5R membranes
T3 construct: purchased Euroscreen
T3 sequence (P41149 whole entry): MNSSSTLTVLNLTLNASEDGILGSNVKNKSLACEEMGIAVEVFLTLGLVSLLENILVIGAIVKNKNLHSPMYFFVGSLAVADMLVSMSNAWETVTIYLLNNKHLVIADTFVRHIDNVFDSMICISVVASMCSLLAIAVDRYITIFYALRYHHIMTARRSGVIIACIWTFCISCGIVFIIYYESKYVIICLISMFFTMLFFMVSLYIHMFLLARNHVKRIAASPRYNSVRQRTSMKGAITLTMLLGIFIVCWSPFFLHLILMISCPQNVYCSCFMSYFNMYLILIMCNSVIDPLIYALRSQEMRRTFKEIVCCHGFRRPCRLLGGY

human MC5R (hMC5R) = target: T4, human MC5R (hMC5R) (Homo sapiens, UniProt P33032); assay: Human MC5R radioligand binding assay (membranes, [125I] NDP-MSH displacement)
T4 construct: purchased Perkin Elmer RBXMC5M400UA
T4 sequence (P33032 whole entry): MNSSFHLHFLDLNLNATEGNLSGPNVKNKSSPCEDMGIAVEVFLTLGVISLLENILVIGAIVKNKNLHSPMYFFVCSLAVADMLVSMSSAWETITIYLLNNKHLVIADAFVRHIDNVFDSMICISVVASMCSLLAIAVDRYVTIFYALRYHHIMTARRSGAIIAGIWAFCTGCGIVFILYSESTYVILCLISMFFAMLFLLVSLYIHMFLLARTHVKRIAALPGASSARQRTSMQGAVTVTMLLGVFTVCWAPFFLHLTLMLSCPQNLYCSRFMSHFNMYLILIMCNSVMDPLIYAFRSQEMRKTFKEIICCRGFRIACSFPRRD
Outline: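 Displacement of [125I]NDP-MSH (radioiodinated in house, HPLC-purified) from hMC5R membranes by test compound measured after 1 hr incubation at 37° C.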

human MC5R [3] = target: T5, human MC5R (Homo sapiens, UniProt P33032); assay: cAMP stimulation assay, agonism, HEK 293 cells expressing human MC5R; assay type: cell-based
T5 construct: host or cells: HEK 293
T5 sequence (P33032 whole entry): as above
Procedure: (§4) The mammalian cell line, human embryonic kidney cells (HEK 293), were maintained in Dulbeccos Modified Eagle's medium (DMEM) with 5% fetal bovine serum (BSA), L-glutamine, high glucose and antibiotics/antimycotics. On the day prior to transfection, cells were passaged using trypsin/EDTA and seeded into 75 cm^2 flasks so that they would be approximately 90% confluent the next day. The next day, the cell media was replaced with fresh antibiotic/antimycotic-containing DMEM. Approximately 100 μl of the transfection lipid Turbofectin 8.0 (Origene Technologies, MD, USA), was diluted in 1.0 mL of serum and antibiotic/antimycotic-free OptiMEM in a sterile 15 mL tube and incubated for 5 mins at room temperature. […]
(§5) Basal level (of cAMP) control wells contained stimulation buffer only (no agonist or compounds). […] After incubation, 10 μl of lysis buffer (10% Tween 20, 1 M HEPES, 0.1% BSA, protease inhibitors, ddH2O) was added to all wells to be measured. […] 5 μl of diluted acceptor beads were added to each well to be measured, then the plate was incubated for 30 mins at room temperature, in the dark, with gentle shaking. […] Plates were read on an Envision plate reader (Perkin Elmer) after 1 hr and ˜16hrs incubation. cAMP concentration in the cells was determined by the use of a ‘standard curve’ generated from the output of known cAMP concentrations as described below. […]

human MC5R [4] = target: T5, human MC5R; assay: cAMP assay, antagonism of alpha-MSH, HEK 293 cells expressing human MC5R; assay type: cell-based; details: antagonism of 10^−6 M alpha-MSH
Procedure: as §4, §5

sebum excretion = details: oral, after 8-12 weeks of therapy; cited from earlier work
[5] = hMC5R binding, tested as trifluoroacetate or hydrochloride salts, or free bases, read-out: MC5R radioligand IC50

Chain of hMC1R (Q01726 whole entry): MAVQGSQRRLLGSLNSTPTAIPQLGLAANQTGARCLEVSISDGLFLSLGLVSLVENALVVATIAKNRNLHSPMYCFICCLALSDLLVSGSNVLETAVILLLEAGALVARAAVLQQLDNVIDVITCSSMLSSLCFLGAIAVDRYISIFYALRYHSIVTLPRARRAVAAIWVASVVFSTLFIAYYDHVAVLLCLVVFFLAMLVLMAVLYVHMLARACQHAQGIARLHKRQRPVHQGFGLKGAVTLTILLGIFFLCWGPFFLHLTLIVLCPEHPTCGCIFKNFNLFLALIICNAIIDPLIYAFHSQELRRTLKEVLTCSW

What does the source list for `O=C(/C=C/c1ccc(Cl)cc1)NC[C@@H]1CCN(CC(c2ccccc2)c2ccccc2)C(=O)[C@H](CCN2CCCCC2)N1` [Compound 33, (E)-3-(4-chlorophenyl)-N-(((3S,5S)-1-(2,2-diphenylethyl)-2-oxo-3-(2-(piperidin-1-yl)ethyl)-1,4-diazepan-5-yl)methyl)acrylamide]?
IC50 (hMC1R): 2.85 µM; IC50 (hMC3R): 1.5 µM; IC50 (hMC4R): 6.06 µM

Which IC50 [1] does the source give for `O=C(NC[C@@H]1CCN(CC(c2ccccc2)c2ccccc2)C(=O)[C@H](CCCN2CCCCC2)N1)c1ccc2ccccc2c1` [Compound 64, N-(((3S,5S)-1-(2,2-diphenylethyl)-2-oxo-3-(3-(piperidin-1-yl)propyl)-1,4-diazepan-5-yl)methyl)-2-naphthamide] here?
Its IC50 is 7.31 µM.

And the IC50 [2]?
Its IC50 is over 5 µM.

Which results are given for `N=C(N)NCCC[C@@H]1N[C@H](CNC(=O)c2ccc3ccccc3c2)CCN(CC(c2ccccc2)c2ccccc2)C1=O` [Compound 105, N-(((3S,5S)-1-(2,2-diphenylethyl)-3-(3-guanidinopropyl)-2-oxo-1,4-diazepan-5-yl)methyl)-2-naphthamide]?
IC50 (mouse MC5R (membrane)): 4 µM; IC50 [1]: 6.03 µM; IC50 [2]: 3 µM; IC50 (hMC1R): 6.66 µM; IC50 (hMC4R): 3.28 µM

For `CCC(CC)CN1CC[C@@H](CNC(=O)/C=C/c2ccc(Cl)cc2)N[C@@H](CCN2CCCCC2)C1=O` [Compound 331, (E)-3-(4-chlorophenyl)-N-(((3S,5S)-1-(2-ethylbutyl)-2-oxo-3-(2-(piperidin-1-yl)ethyl)-1,4-diazepan-5-yl)methyl)acrylamide], which IC50 (human MC5R (hMC5R); [5]) is on record?
Its IC50 is under 1 µM.

And the IC50 (human MC5R (hMC5R); hMCR binding selectivity, [125I] NDP-MSH, membranes, read-out: human MC5R IC50)?
Its IC50 is 0.15 µM.

And the IC50 (hMC3R)?
The IC50 was 1.83 µM.

What about the EC50 (human MC5R [3]) of the same molecule?
The EC50 was over 10 µM.

What about the IC50 (human MC5R [4]) of the same molecule?
The IC50 was 0.094 µM.

For `CC[C@H](CN1CC[C@@H](CNC(=O)c2ccc3cc(OC)ccc3c2)N[C@@H](CCN2CCCCC2)C1=O)c1ccccc1` [Compound 537, 6-methoxy-N-(((3S,5S)-2-oxo-1-((S)-2-phenylbutyl)-3-(2-(piperidin-1-yl)ethyl)-1,4-diazepan-5-yl)methyl)-2-naphthamide], which IC50 (human MC5R (hMC5R); [5]) is on record?
The IC50 was under 0.1 µM.

Which IC50 (human MC5R (hMC5R); [5]) does the source give for `CC[C@H](CN1CC[C@@H](CNC(=O)c2ccc3ccccc3c2OC)N[C@@H](CCN2CCCCC2)C1=O)c1ccccc1` [Compound 538, 1-methoxy-N-(((3S,5S)-2-oxo-1-((S)-2-phenylbutyl)-3-(2-(piperidin-1-yl)ethyl)-1,4-diazepan-5-yl)methyl)-2-naphthamide] here?
The IC50 was under 0.1 µM.

Which IC50 (human MC5R (hMC5R); [5]) does the source give for `CC[C@H](CN1CC[C@@H](CNC(=O)/C=C/c2ccc(OC(F)(F)F)c(F)c2)N[C@@H](CCN2CCCCC2)C1=O)c1ccccc1` [Compound 539, (E)-3-(3-fluoro-4-(trifluoromethoxy)phenyl)-N-(((3S,5S)-2-oxo-1-((S)-2-phenylbutyl)-3-(2-(piperidin-1-yl)ethyl)-1,4-diazepan-5-yl)methyl)acrylamide] here?
The IC50 was under 0.01 µM.

With `CC1=C(/C=C/C(C)=C/C=C/C(C)=C\C(=O)O)C(C)(C)CCC1` [isotretinoin] as the molecule, how does the “reduction of sebum excretion” value (sebum excretion) read?
Its value is “up to 90%”.
